Data from US10414764B2, “Substantially pure vemurafenib and its salts” (SHILPA MEDICARE LIMITED, priority 2014, dated 2019).
Structures can show the parent of a compound that is named as a salt. Where two headings read alike, the source gives them in different places.

Experiments:
Solubility in water = format: physicochemical; settings: product as per the present invention
[1] = cited from earlier work; for Solubility in water: marketed/prior reported crystalline Form II, from EMEA scientific discussion of Zelboraf
[2] = Storage stability (morphology and physicochemical characteristics); settings: Vemurafenib obtained as per the present process
[3] = European assessment report of Zelboraf; low solubility and permeability; cited from earlier work

Q: With CCCS(=O)(=O)Nc1ccc(F)c(C(=O)c2c[nH]c3ncc(-c4ccc(Cl)cc4)cc23)c1F [Form-SVM, propane-1-sulfonic acid-{3-[5-(4-chlorophenyl)-1H-pyrrolo[2,3-b]pyridine-3-carbonyl]-2,4-difluoro-phenyl}-amide] as the molecule, how does the Solubility in water (Solubility in water) read?
A: The Solubility in water was over 1 µg/mL.

Q: What about the solubility (Solubility in water; water) of the same molecule?
A: Its solubility is over 1 µg/mL.

Q: For CCCS(=O)(=O)Nc1ccc(F)c(C(=O)c2c[nH]c3ncc(-c4ccc(Cl)cc4)cc23)c1F [Form-II, propane-1-sulfonic acid-{3-[5-(4-chlorophenyl)-1H-pyrrolo[2,3-b]pyridine-3-carbonyl]-2,4-difluoro-phenyl}-amide], which Solubility in water [1] is on record?
A: Its Solubility in water is under 0.1 µg/mL.

Q: And the Solubility in water ([1]; listed as Crystalline Vemurafenib (Form II))?
A: The Solubility in water was under 0.1 µg/mL.

Q: What does the source list for CCCS(=O)(=O)Nc1ccc(F)c(C(=O)c2c[nH]c3ncc(-c4ccc(Cl)cc4)cc23)c1F [Vemurafenib, propane-1-sulfonic acid-{3-[5-(4-chlorophenyl)-1H-pyrrolo[2,3-b]pyridine-3-carbonyl]-2,4-difluoro-phenyl}-amide]?
A: Stable to handle and store without significant change in morphology and physicochemical characteristics [2]: more than 6 months; Solubility in aqueous media ([1]; background description of the drug substance): practically insoluble; Solubility in water [1]: < 0.1 µg/mL; Biopharmaceutics Classification System class [3]: Class IV

Q: With CCCS(=O)(=O)Nc1ccc(F)c(C(=O)c2c[nH]c3ncc(-c4ccc(Cl)cc4)cc23)c1F [Vemurafenib trifluoro methane sulfonic acid salt] as the molecule, how does the Solubility in water (Solubility in water) read?
A: Its Solubility in water is at least 1 µg/mL.
